US20020168325A1, “NOS inhibitors for treatment of wrinkles” (priority 2001, published 2002)
“Also recorded” adds a separate entry of the source.

How the values were obtained:
[1] = tested on: back skin of mice (HR-1 hairless strain); assay: Wrinkle formation caused by UVB exposure, analysis of back skin replicas (Wrinkle Analyzer 3D Pro); assay type: in vivo
Source text: The effect of a compound on the formation or appearance of wrinkles can be evaluated qualitatively, e.g., by visual inspection, or quantitatively, e.g., by computer assisted measurements of wrinkle morphology. Preferably, wrinkle morphology is quantitatively analyzed. Examples of quantitative methods for measuring wrinkles include, but are not limited to, the optical cut technique employing a laser beam, as proposed by Hoshino (1992) Pixel 45:121, herein incorporated by reference; or methods which analyze three-dimensional skin replicas, e.g., the Shiseido Wrinkle Analyzer 3D Pro system (Takasu et al. (1996) J Soc Cosmet Chem Japan 29:394-405; Japanese Published Patent Application No. 07-113623, published May 2, 1995 (corresponds to U.S. patent application Ser. No. 08/364,346)). The SILFLO (Flexico Development Ltd.) system or a similar system can be used to take a replica of the skin. Irregularities on the surface of the skin replica, i.e., wrinkles, are analyzed, e.g., with the Shiseido Wrinkle Analyzer 3D Pro or a similar system, to provide three-dimensional shape data from the heights at points on a two-dimensional plane corresponding to the skin. According to the three-dimensional data, the length, width, depth, area, and volume of each wrinkle is calculated. According to the parameters for regular and fine wrinkles described herein, different classes of wrinkles, including the subclasses of regular and fine wrinkles, can thus be individually recognized and scored.
To examine the effect of L-NAME on wrinkle formation, wrinkle measurements experiments were performed on the back skin of mice (HR-1 hairless strain, female, 5 weeks of age, n=3) by taking and analyzing skin replicas.
Mice were exposed to UVB irradiation three times a week for ten weeks beginning with 0.3mW/cm^2. The total exposure was 4.662J/cm^2. 100 microliters of 1% L-NAME in 70% ethanol, or 70% ethanol as a control, was applied after each UVB irradiation. Three days after the final UVB irradiation, skin replicas of the dorsal area were taken by means of SILFLO (Flexico Development Ltd.). Replicas were evaluated by the Wrinkle Analyzer 3D Pro developed by Shiseido (essentially as described in Takasu et al. (1996) J Soc Cosmet Chem Japan 29:394-405). Wrinkdle volume and width of regular and fine wrinkles was calculated through three-dimensional data.

[2] = tested on: ears of female Balb/C mice; assay: Ear swelling response (skin irritation from topical application); assay type: in vivo
Description: To examine the potential for irritation from topical application of a NOS inhibitor to the skin, measurements of ear swelling response were performed as follows: The thickness of both ears of each of three female Balb/C mice, 10 weeks of age, was measured with a thickness gage (Mitsutoyo Corp.). Ten microliters of 1% L-NAME (L-N^G-nitro-arginine methyl ester) in 70% ethanol in water was applied to each right ear, and 10 microliters of 70% ethanol in water was applied to each left ear as a control. Ear thickness was monitored over two consecutive days following administration of the solutions.

[3] = UVB three times a week for ten weeks, 100 microliters of 1% L-NAME in 70% ethanol after each irradiation, replicas three days after final UVB

SMILES: COC(=O)[C@@H](N)CCCNC(=N)N[N+](=O)[O-] [L-NAME, L-N^G-nitro-arginine methyl ester]
- Effect on fine wrinkle formation caused by UVB exposure ([1]; 1% L-NAME in 70% ethanol on back skin of mice, compared to control mice): prevented the formation of fine wrinkles; also recorded: reduction in fine wrinkles
- Wrinkle volume, fine wrinkles [1, 3]: 175,295 pixels
- Wrinkle volume, regular wrinkles [1, 3]: 896,863 pixels
- Wrinkle volume, total (regular + fine) [1, 3]: 1,072,158 pixels
- Difference in ear thickness between control and treated ears ([2]; 1% L-NAME in 70% ethanol vs 70% ethanol control, over two days): no statistically significant difference in ear thickness
- Skin inflammation / other signs of irritation (redness, flaking) ([2]; 1% L-NAME in 70% ethanol, topical on ear): did not cause skin inflammation; also recorded: no other signs of skin irritation or inflammation
- Ear thickness DAY 0, AVE ± SD ([2]; Day 0, right ears, 10 microliters of 1% L-NAME in 70% ethanol topical, three female Balb/C mice): 26.33 ± 0.58 × 0.01 mm
- Ear thickness DAY 1, AVE ± SD ([2]; Day 1 after application, right ears, 10 microliters of 1% L-NAME in 70% ethanol topical): 25.33 ± 0.58 × 0.01 mm
- Ear thickness DAY 2, AVE ± SD ([2]; Day 2 after application, right ears, 10 microliters of 1% L-NAME in 70% ethanol topical): 26.33 ± 0.58 × 0.01 mm
